{"source": "patent US10829796B2", "about": "“Bacteria identification and antimicrobial susceptibility test” (priority 2015, dated 2020)", "system": "bacteria in clinical bovine mastitis milk samples", "assay": "Combined bacteria identification and antimicrobial susceptibility test (colour of wells, MIC) on clinical bovine mastitis milk samples", "type": "cell-based", "description": "Clinical bovine mastitis milk samples were collected by a vet clinic in South Island, New Zealand. Samples were stored in the freezer for several months and shipped frozen to the testing facility. In this Example, the term “clinical” means that dairy cows had clinical symptoms of an udder infection e.g. cow behaved unusual, milk clots, swollen udder among other typical symptoms. Testing was executed in microwell plate comprising of 24 wells (3×8 wells).\nIn addition, 20 ul of clinical mastitis sample was added to each well with a laboratory pipette.\n(§1) Abbreviations • 1. 80 ul GC+10 ul Tell: 80 ul Giolitti Cantoni base broth+10 ul Tellurite solution (1%); • 2. 80 ul TSB/Esc/Fer Cit: 80 ul Tryptic soy broth containing 0.25% Esculin and 0.125% Ammonium Ferric Citrate; • 3. 80 ul TSB/Esc/Fer Cit+10 ul Genta: 80 ul Tryptic soy broth containing 0.25% Esculin and 0.125% Ammonium Ferric Citrate+10 ul of Gentamycin solution 10 mg/ml; • 4. 80 ul McC/PR25: 80 ul MacConkey broth (single strength) containing 0.0125% phenol red; and • 5. 80 ul TSB/PR25: 80 ul Tryptic soy broth containing 0.0125% phenol red. Bacteria Identification\nColumns A to C and rows 1 and 2 were used for bacteria identification. A1: coagulase positive Staph; A2: Staphylococci; B1: Strep group D; B2: Strep group D; C1: general enrichment media (gram+ and gram-bacteria); C2: coliform bacteria.\nColumn A3 to A8: serial dilution of benzyl penicillin as potassium. Column B3 to B8: serial dilution of ceftiofur as hydrochloride. Column C3 to C8: serial dilution of cloxacillin as sodium. Antibiotic concentrations are listed as free form ranging between 4 ug/ml to 0.05 ug/ml.\nMinimum inhibitory substance concentration (MIC) is here defined as the concentration if a colour change occurs between two wells (one well remains red with drug concentration 1, the other one yellow with drug concentration 2, whereas drug concentration 1 is larger than drug concentration 2) then the MIC is the value of drug concentration 1.\nTable 21 indicates the microwell plate configuration #1; Drugs: Benzylpenicillin as potassium; Cloxacillin as sodium; Ceftiofur as hydrochloride; Drug concentration in each well (A3 to C8) is based on 80 μl composition+10 μl drug solution+20 μl clinical mastitis milk sample and equivalent to listed drug concentration in μg/ml; 20 ul of clinical bovine mastitis milk sample was added to each well (A1 to C8).\nIn addition, each well received one drop of clinical sample from a transfer pipette which was on average about 35 mg. This was determined through weighing the well plate prior and after the addition of clinical mastitis samples. This weight was then divided by 24.\nas §1, with “•” for “Abbreviations •”, “red.” for “red. Bacteria Identification”\nColumns A to C and rows 1 and 2 were used for bacteria identification. A1: coagulase positive Staph; A2: Staphylococci; B1: Strep Group D; B2: -; C1: general enrichment media (gram+ and gram-); C2: coliform bacteria.\nColumn A3 to A8: serial dilution of benzyl penicillin as potassium. Drug concentrations given as free form ranging between 4 ug/ml to 0.05 ug/ml. Column B3 to B8: serial dilution of ceftiofur as hydrochloride. Drug concentrations given as free form ranging between 4 ug/ml to 0.05 ug/ml. Column C3 to C8: serial dilution of cloxacillin as sodium. Drug concentrations given as free form ranging between 4 ug/ml to 0.05 ug/ml.", "data": [{"smiles": "CC1(C)S[C@@H]2[C@H](NC(=O)Cc3ccccc3)C(=O)N2[C@H]1C(=O)O", "note": "[benzyl penicillin]", "values": [{"measurement": "Colour of media in each well", "setting": "ID 1, T = 22 h, 37° C., plate configuration #1, drug 0.05 μg/ml", "result": "orange"}, {"measurement": "Colour of media in each well", "setting": "ID 1, T = 22 h, 37° C., plate configuration #1, drug 0.1 μg/ml", "result": "red"}, {"measurement": "Colour of media in each well", "setting": "ID 1, T = 22 h, 37° C., plate configuration #1, drug 0.5 μg/ml", "result": "red"}, {"measurement": "Colour of media in each well", "setting": "ID 1, T = 22 h, 37° C., plate configuration #1, drug 1 μg/ml", "result": "red"}, {"measurement": "Colour of media in each well", "setting": "ID 1, T = 22 h, 37° C., plate configuration #1, drug 2 μg/ml", "result": "red"}, {"measurement": "Colour of media in each well", "setting": "ID 1, T = 22 h, 37° C., plate configuration #1, drug 4 μg/ml", "result": "red"}, {"measurement": "Colour of media in each well", "setting": "ID 2, T = 48 h, 37° C., plate configuration #1, drug 0.05 μg/ml", "result": "yellow"}, {"measurement": "Colour of media in each well", "setting": "ID 2, T = 48 h, 37° C., plate configuration #1, drug 0.1 μg/ml", "result": "yellow"}, {"measurement": "Colour of media in each well", "setting": "ID 2, T = 48 h, 37° C., plate configuration #1, drug 0.5 μg/ml", "result": "yellow"}, {"measurement": "Colour of media in each well", "setting": "ID 2, T = 48 h, 37° C., plate configuration #1, drug 1 μg/ml", "result": "yellow"}, {"measurement": "Colour of media in each well", "setting": "ID 2, T = 48 h, 37° C., plate configuration #1, drug 2 μg/ml", "result": "yellow"}, {"measurement": "Colour of media in each well", "setting": "ID 2, T = 48 h, 37° C., plate configuration #1, drug 4 μg/ml", "result": "yellow"}, {"measurement": "Colour of media in each well", "setting": "ID 3, T = 22 h, 37° C., plate configuration #1, drug 0.05 μg/ml", "result": "yellow"}, {"measurement": "Colour of media in each well", "setting": "ID 3, T = 22 h, 37° C., plate configuration #1, drug 0.1 μg/ml", "result": "yellow"}, {"measurement": "Colour of media in each well", "setting": "ID 3, T = 22 h, 37° C., plate configuration #1, drug 0.5 μg/ml", "result": "yellow"}, {"measurement": "Colour of media in each well", "setting": "ID 3, T = 22 h, 37° C., plate configuration #1, drug 1 μg/ml", "result": "yellow"}, {"measurement": "Colour of media in each well", "setting": "ID 3, T = 22 h, 37° C., plate configuration #1, drug 2 μg/ml", "result": "yellow"}, {"measurement": "Colour of media in each well", "setting": "ID 3, T = 22 h, 37° C., plate configuration #1, drug 4 μg/ml", "result": "yellow"}, {"measurement": "Colour of media in each well", "setting": "ID 3, T = 23 h, 37° C., Table 34, drug 0.05 μg/ml", "result": "yellow"}, {"measurement": "Colour of media in each well", "setting": "ID 3, T = 23 h, 37° C., Table 34, drug 0.1 μg/ml", "result": "yellow"}, {"measurement": "Colour of media in each well", "setting": "ID 3, T = 23 h, 37° C., Table 34, drug 0.5 μg/ml", "result": "yellow"}, {"measurement": "Colour of media in each well", "setting": "ID 3, T = 23 h, 37° C., Table 34, drug 1 μg/ml", "result": "yellow"}, {"measurement": "Colour of media in each well", "setting": "ID 3, T = 23 h, 37° C., Table 34, drug 2 μg/ml", "result": "yellow"}, {"measurement": "Colour of media in each well", "setting": "ID 3, T = 23 h, 37° C., Table 34, drug 4 μg/ml", "result": "yellow"}, {"measurement": "Colour of media in each well", "setting": "ID 3, T~7 h, 37° C., Table 34, drug 0.05 μg/ml", "result": "red"}, {"measurement": "Colour of media in each well", "setting": "ID 3, T~7 h, 37° C., Table 34, drug 0.1 μg/ml", "result": "red"}, {"measurement": "Colour of media in each well", "setting": "ID 3, T~7 h, 37° C., Table 34, drug 0.5 μg/ml", "result": "red"}, {"measurement": "Colour of media in each well", "setting": "ID 3, T~7 h, 37° C., Table 34, drug 1 μg/ml", "result": "red"}, {"measurement": "Colour of media in each well", "setting": "ID 3, T~7 h, 37° C., Table 34, drug 2 μg/ml", "result": "red"}, {"measurement": "Colour of media in each well", "setting": "ID 3, T~7 h, 37° C., Table 34, drug 4 μg/ml", "result": "red"}, {"measurement": "Colour of media in each well", "setting": "ID 3, T~11 h, 37° C., Table 34, drug 0.05 μg/ml", "result": "red"}, {"measurement": "Colour of media in each well", "setting": "ID 3, T~11 h, 37° C., Table 34, drug 0.1 μg/ml", "result": "red"}, {"measurement": "Colour of media in each well", "setting": "ID 3, T~11 h, 37° C., Table 34, drug 0.5 μg/ml", "result": "red"}, {"measurement": "Colour of media in each well", "setting": "ID 3, T~11 h, 37° C., Table 34, drug 1 μg/ml", "result": "red"}, {"measurement": "Colour of media in each well", "setting": "ID 3, T~11 h, 37° C., Table 34, drug 2 μg/ml", "result": "red"}, {"measurement": "Colour of media in each well", "setting": "ID 3, T~11 h, 37° C., Table 34, drug 4 μg/ml", "result": "red"}, {"measurement": "Colour of media in each well", "setting": "ID 4, T = 22 h, 37° C., plate configuration #1, drug 0.05 μg/ml", "result": "yellow"}, {"measurement": "Colour of media in each well", "setting": "ID 4, T = 22 h, 37° C., plate configuration #1, drug 0.1 μg/ml", "result": "yellow"}, {"measurement": "Colour of media in each well", "setting": "ID 4, T = 22 h, 37° C., plate configuration #1, drug 0.5 μg/ml", "result": "yellow"}, {"measurement": "Colour of media in each well", "setting": "ID 4, T = 22 h, 37° C., plate configuration #1, drug 1 μg/ml", "result": "orange"}, {"measurement": "Colour of media in each well", "setting": "ID 4, T = 22 h, 37° C., plate configuration #1, drug 2 μg/ml", "result": "orange"}, {"measurement": "Colour of media in each well", "setting": "ID 4, T = 22 h, 37° C., plate configuration #1, drug 4 μg/ml", "result": "yellow"}, {"measurement": "Colour of media in each well", "setting": "ID 5, T = 23 h, 37° C., plate configuration #2, drug 0.05 μg/ml", "result": "red"}, {"measurement": "Colour of media in each well", "setting": "ID 5, T = 23 h, 37° C., plate configuration #2, drug 0.1 μg/ml", "result": "red"}, {"measurement": "Colour of media in each well", "setting": "ID 5, T = 23 h, 37° C., plate configuration #2, drug 0.5 μg/ml", "result": "red"}, {"measurement": "Colour of media in each well", "setting": "ID 5, T = 23 h, 37° C., plate configuration #2, drug 1 μg/ml", "result": "red"}, {"measurement": "Colour of media in each well", "setting": "ID 5, T = 23 h, 37° C., plate configuration #2, drug 2 μg/ml", "result": "red"}, {"measurement": "Colour of media in each well", "setting": "ID 5, T = 23 h, 37° C., plate configuration #2, drug 4 μg/ml", "result": "red"}, {"measurement": "Colour of media in each well", "setting": "ID 5 to 8, T = 0 h (prior incubation, reference), plate configuration #2, drug 0.05 μg/ml", "result": "red"}, {"measurement": "Colour of media in each well", "setting": "ID 5 to 8, T = 0 h (prior incubation, reference), plate configuration #2, drug 0.1 μg/ml", "result": "red"}, {"measurement": "Colour of media in each well", "setting": "ID 5 to 8, T = 0 h (prior incubation, reference), plate configuration #2, drug 0.5 μg/ml", "result": "red"}]}]}
